SMILES strings stand for the structures.

This assay addresses T1, KDM4A (Homo sapiens, UniProt O75164).
T1 construct: N-terminal His-tagged KDM4A^1-350 was purchased from BPS Biosciences; His (N); purchased BPS Biosciences
T1 sequence (O75164 1-350): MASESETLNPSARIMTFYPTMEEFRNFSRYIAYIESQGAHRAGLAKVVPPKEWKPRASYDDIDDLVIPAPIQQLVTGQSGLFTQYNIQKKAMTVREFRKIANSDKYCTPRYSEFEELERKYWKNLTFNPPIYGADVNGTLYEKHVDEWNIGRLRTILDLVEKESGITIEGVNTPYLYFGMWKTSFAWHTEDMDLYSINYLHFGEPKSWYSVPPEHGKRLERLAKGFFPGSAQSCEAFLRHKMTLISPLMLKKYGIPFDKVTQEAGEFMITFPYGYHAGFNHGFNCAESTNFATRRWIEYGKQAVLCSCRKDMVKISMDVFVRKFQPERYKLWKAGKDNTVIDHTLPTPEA
As to the kind of experiment: KDM4A Assay (SAMDI mass spectrometry demethylase assay). It is filed as biochemical. The settings on record: N-terminal His-tagged KDM4A 1-350; class symbols; read-out: 4A IC50. The procedure: N-terminal His-tagged KDM4A^1-350 was purchased from BPS Biosciences. Peptides were synthesized by BioPeptide and all other reagents were purchased from Sigma-Aldrich at the highest level of purity possible. Assays were performed in a 50 μL volume in 384-well V-bottom polypropylene microplates (Greiner) at 25° C. Optimized 1× assay buffer was 50 mM HEPES (pH=8.0), 100 μM sodium ascorbate, 20 mM NaCl, 10 μM ammonium iron sulfate, 1 mM tris(2-carboxyethyl)phosphine (TCEP), 0.002% Tween-20, and 0.005% BSG. For compound screening, 35 μL of KDM4A^1-350 (final concentration, f.c.=5 nM) was added using a Multidrop Combi and preincubated with 1 μL of test compound (f.c.=10 μM) for 30 minutes and subsequently 15 μL of peptide with the following sequence NH2-ARTKQTAR(Kme2)STGGKAPRKQLA(K-Ahx-Biotin)-amide (f.c.=600 nM) and 2-oxoglutarate (f.c.=5 μM) was added by Multidrop Combi to begin the reaction. Reactions proceeded for 120 minutes and were stopped by the addition of 5 μL of formic acid (f.c.=0.5%) using a Multidrop Combi and then analyzed by SAMDI Tech Inc.
SAMDI Tech analyzed all reactions using self-assembled monoloayer desorption/ionization technology as previously described (Gerard-Levin Z A, Scholle M D, Eisenberg A H, et al.: High-throughput screening of small molecule libraries using SAMDI mass spectrometry. ACS Comb Sci 2011; 13:347-350). Briefly, a 2 μL sample of the stopped demethylase reactions were transferred to a SAMDI array coated with 384 biotin-neutravidin spots using a 384-channel pipet station. The SAMDI arrays were incubated for 1 h in a humidified chamber, followed by washing of the surface with deionized ultra-filtered water (DIUF) and drying under nitrogen. A matrix of 30 mg/ml 2′,4′,6′-Trihydroxyacetophenone monohydrate (THAP) in acetone was applied using a TPP Mosquito 1.2 μL tip by dispensing 50 nL on each of the 384 spots on the array. SAMDI-MS was run using acquisition method ReflectorPositiveUTX. The % conversion of substrate to product was calculated using the AUC of the substrate and product peptide peaks.
An IC50 value was determined by contacting various concentrations of a test compound with one of the KDM4A, KDM4C or KDMSC enzyme constructs and plotting a dose-response curve which associates the amount of inhibition of the enzyme relative to the concentration of the test compound. From the curve, the IC50 value (which represents the concentration of the test compound necessary to inhibit maximal enzymatic activity by 50%) was determined. Additionally, the slope of the linear range of the plotted curve, which indicates the speed with which the curve rises between the minimum and maximum, was calculated.

In the case of `Cc1nn(C2CCCNCC2)cc1Nc1cnccc1C(=O)O` (single isomer, unassigned) [Compound 114], the IC50 (commonly the point on the concentration scale where inhibition reaches its midpoint) lay within 100 to 1000 nM. Consider `Cc1nn(C2CCCNCC2)cc1Nc1cnccc1C(=O)O` (single isomer, unassigned) [Compound 116], for which the IC50 was 100 to 1000 nM. In the case of `Cn1ncc(-c2ccccc2)c1Nc1cnccc1C(=O)O` [Compound 1], the IC50 fell in the range of 100 to 1000 nM. The result for `Cc1cn(-c2ccccc2)c(Nc2cnccc2C(=O)O)n1` [Compound 2] reads 100 to 1000 nM. In the case of `Cn1cc(-c2ccccc2)c(Nc2cnccc2C(=O)O)n1` [Compound 3], the IC50 lay in the range of 1000 to 10000 nM. With `Cn1nc(-c2ccccc2)cc1Nc1cnccc1C(=O)O` [Compound 6], the half-maximal inhibitory concentration (IC50) is 100 to 1000 nM.

As for `Cn1cc(-c2ccc(F)cc2)c(Nc2cnccc2C(=O)O)n1` [Compound 7, 3-((4-(4-Fluorophenyl)-1-methyl-1H-pyrazol-3-yl)amino) isonicotinic acid], the 50% inhibitory concentration (IC50) was in the range of 100 to 1000 nM. The result for `Cn1ncc(-c2ccc(F)cc2)c1Nc1cnccc1C(=O)O` [Compound 8, 3-((4-(4-fluorophenyl)-1-methyl-1H-pyrazol-5-yl)amino) isonicotinic acid] reads 1000 to 10000 nM; that for `Cn1cc(-c2cccc(F)c2)c(Nc2cnccc2C(=O)O)n1` [Compound 9, 3-((4-(3-Fluorophenyl)-1-methyl-1H-pyrazol-3-yl)amino) isonicotinic acid], 100 to 1000 nM; that for `Cn1ncc(-c2cccc(F)c2)c1Nc1cnccc1C(=O)O` [Compound 10, 3-((4-(3-Fluorophenyl)-1-methyl-1H-pyrazol-5-yl)amino) isonicotinic acid], 1000 to 10000 nM. `Cn1cc(-c2ccccc2F)c(Nc2cnccc2C(=O)O)n1` [Compound 11, 3-((4-(2-Fluorophenyl)-1-methyl-1H-pyrazol-3-yl)amino) isonicotinic acid]: the IC50 fell in the range of 100 to 1000 nM. As for `Cn1ncc(-c2ccccc2F)c1Nc1cnccc1C(=O)O` [Compound 12, 3-((4-(2-fluorophenyl)-1-methyl-1H-pyrazol-5-yl)amino) isonicotinic acid], the concentration for half-maximal inhibition (IC50) lay in the range of 100 to 1000 nM. The figure for `Cn1cc(Nc2cnccc2C(=O)O)c(-c2ccccc2)n1` [Compound 13, 3-((1-methyl-3-phenyl-1H-pyrazol-4-yl)amino) isonicotinic acid] is 1000 to 10000 nM; for `O=C(O)c1ccncc1Nc1nn(CCN2CCC(F)(F)CC2)cc1-c1ccccc1` [Compound 14, 3-((1-(2-(4,4-Difluoropiperidin-1-yl)ethyl)-4-phenyl-1H-pyrazol-3-yl)amino)isonicotinic acid] it is 100 to 1000 nM; for `O=C(O)c1ccncc1Nc1c(-c2ccccc2)cnn1CCN1CCC(F)(F)CC1` [Compound 15, 3-((1-(2-(4,4-difluoropiperidin-1-yl)ethyl)-4-phenyl-1H-pyrazol-5-yl)amino)isonicotinic acid] it is 10000 to 100000 nM.

Regarding `Cc1n[nH]c(C)c1Nc1cnccc1C(=O)O` [Compound 16, 3-((3,5-Dimethyl-1H-pyrazol-4-yl)amino)isonicotinic acid], the half-maximal inhibitory concentration (IC50) is 1000 to 10000 nM. For the molecule `O=C(O)c1ccncc1Nc1cn(CCN2CCC(F)(F)CC2)nc1-c1ccccc1` [Compound 17, 3-((1-(2-(4,4-Difluoropiperidin-1-yl)ethyl)-3-phenyl-1H-pyrazol-4-yl)amino)isonicotinic acid], the IC50 is 1000 to 10000 nM.

Consider `O=C(O)c1ccncc1Nc1cnn(CCN2CCC(F)(F)CC2)c1-c1ccccc1` [Compound 18, 3-((1-(2-(4,4-difluoropiperidin-1-yl)ethyl)-5-phenyl-1H-pyrazol-4-yl)amino)isonicotinic acid], for which the half-maximal inhibitory concentration (IC50) lay within 100 to 1000 nM. For the molecule `Cc1nn(-c2ccccc2)cc1Nc1cnccc1C(=O)O` [Compound 19, 3-((3-Methyl-1-phenyl-1H-pyrazol-4-yl)amino)isonicotinic acid], the 50% inhibitory concentration (IC50) fell in the range of 1 to 100 nM. Consider `Cc1c(Nc2cnccc2C(=O)O)cnn1-c1ccccc1` [Compound 20, 3-((5-methyl-1-phenyl-1H-pyrazol-4-yl)amino)isonicotinic acid], for which the concentration for half-maximal inhibition (IC50) fell in the range of 1 to 100 nM. The result for `O=C(O)c1ccncc1Nc1cc(-c2ccccc2)nn1-c1ccccc1` [Compound 21, 3-((1,3-Diphenyl-1H-pyrazol-5-yl)amino)isonicotinic acid] reads 1000 to 10000 nM; that for `CC(C)n1nc(-c2ccccc2)cc1Nc1cnccc1C(=O)O` [Compound 22, 3-((1-Isopropyl-3-phenyl-1H-pyrazol-5-yl)amino)isonicotinic acid], 100 to 1000 nM; that for `O=C(O)c1ccncc1Nc1cc(-c2ccccc2)nn1C1CCOCC1` [Compound 23, 3-((3-Phenyl-1-(tetrahydro-2H-pyran-4-yl)-1H-pyrazol-5-yl)amino)isonicotinic acid], 1000 to 10000 nM.

For the molecule `Cn1nc(-c2ccc(Cl)cc2)cc1Nc1cnccc1C(=O)O` [Compound 24, 3-((3-(4-Chlorophenyl)-1-methyl-1H-pyrazol-5-yl)amino) isonicotinic acid], the concentration for half-maximal inhibition (IC50) lay in the range of 100 to 1000 nM.

Regarding `Cn1nc(-c2cccc(Cl)c2)cc1Nc1cnccc1C(=O)O` [Compound 25, 3-((3-(3-chlorophenyl)-1-methyl-1H-pyrazol-5-yl)amino) isonicotinic acid], the IC50 lay in the range of 100 to 1000 nM. `NCCn1nc(-c2ccccc2)cc1Nc1cnccc1C(=O)O` [Compound 26]: the IC50 is 1000 to 10000 nM. On to `COCCn1nc(-c2ccccc2)cc1Nc1cnccc1C(=O)O` [Compound 27, 3-((1-(2-Methoxyethyl)-3-phenyl-1H-pyrazol-5-yl)amino) isonicotinic acid], for which the IC50 lay in the range of 100 to 1000 nM.

On to `Cc1c(Nc2cnccc2C(=O)O)cnn1Cc1ccccc1` [Compound 33, 3-((1-benzyl-5-methyl-1H-pyrazol-4-yl)amino)isonicotinic acid], for which the half-inhibitory concentration (IC50) fell in the range of 1 to 100 nM.

Consider `CN1CCN(CCn2cc(-c3ccccc3)c(Nc3cnccc3C(=O)O)n2)CC1` [Compound 34, 3-((1-(2-(4-Methylpiperazin-1-yl)ethyl)-4-phenyl-1H-pyrazol-3-yl)amino)isonicotinic acid], for which the IC50 was in the range of 1000 to 10000 nM. The result for `CN1CCN(CCn2ncc(-c3ccccc3)c2Nc2cnccc2C(=O)O)CC1` [Compound 35, 3-((1-(2-(4-methylpiperazin-1-yl)ethyl)-4-phenyl-1H-pyrazol-5-yl)amino)isonicotinic acid] reads 100 to 1000 nM. Consider `CCn1nc(-c2ccccc2)cc1Nc1cnccc1C(=O)O` [Compound 36, 3-((1-Ethyl-3-phenyl-1H-pyrazol-5-yl)amino)isonicotinic acid], for which the half-inhibitory concentration (IC50) fell in the range of 100 to 1000 nM. As to `N[C@H]1CC[C@@H](n2nc(-c3ccccc3)cc2Nc2cnccc2C(=O)O)CC1` [Compound 37, 3-((1-((cis)-4-aminocyclohexyl)-3-phenyl-1H-pyrazol-5-yl)amino)isonicotinic acid], the half-inhibitory concentration (IC50) lay in the range of 100 to 1000 nM.

Regarding `N[C@H]1CC[C@H](n2nc(-c3ccccc3)cc2Nc2cnccc2C(=O)O)CC1` [Compound 38, 3-((1-((trans)-4-aminocyclohexyl)-3-phenyl-1H-pyrazol-5-yl)amino)isonicotinic acid], the IC50 was in the range of 10000 to 100000 nM.

Consider `O=C(O)c1ccncc1Nc1cc(-c2ccccc2)nn1[C@H]1CC[C@H](O)CC1` [Compound 39, 3-((1-((trans)-4-hydroxycyclohexyl)-3-phenyl-1H-pyrazol-5-yl)amino)isonicotinic acid], for which the IC50 was in the range of 1000 to 10000 nM.

These data come from US20170291890A1 (Epizyme, Inc., priority 2014, published 2017).
